According to patent US20230148214A1, “INDAZOLES AND AZAINDAZOLES AS LRRK2 INHIBITORS” (ESCAPE Bio, Inc., priority 2020, published 2023):

What was measured:
LRRK2 WT = target: T1, LRRK2 WT (Homo sapiens, UniProt Q5S007); assay: LRRK2 Kinase Activity Assay (LanthaScreen TR-FRET), wild type; type: biochemical; conditions: recombinant wild type LRRK2, 25 μM ATP, 400 nM LRRKtide, 60 min; class symbols
T1 construct: purchased Life Technologies PR8604B
Outline: (§1)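 Recombinant wild-type or G2019S LRRK2 incubated with fluorescein-labeled LRRKtide (ERM-based) peptide, ATP and serially diluted compound for 60 min at room temperature.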

LRRK2 G2019S = target: T2, LRRK2 G2019S (Homo sapiens, UniProt Q5S007, G2019S); assay: LRRK2 Kinase Activity Assay (LanthaScreen TR-FRET), G2019S; type: biochemical; conditions: recombinant G2019S-LRRK2, 25 μM ATP, 400 nM LRRKtide, 60 min; class symbols
T2 construct: purchased Life Technologies PV4881
Outline: as §1

T2 sequence (Q5S007 whole entry G2019S): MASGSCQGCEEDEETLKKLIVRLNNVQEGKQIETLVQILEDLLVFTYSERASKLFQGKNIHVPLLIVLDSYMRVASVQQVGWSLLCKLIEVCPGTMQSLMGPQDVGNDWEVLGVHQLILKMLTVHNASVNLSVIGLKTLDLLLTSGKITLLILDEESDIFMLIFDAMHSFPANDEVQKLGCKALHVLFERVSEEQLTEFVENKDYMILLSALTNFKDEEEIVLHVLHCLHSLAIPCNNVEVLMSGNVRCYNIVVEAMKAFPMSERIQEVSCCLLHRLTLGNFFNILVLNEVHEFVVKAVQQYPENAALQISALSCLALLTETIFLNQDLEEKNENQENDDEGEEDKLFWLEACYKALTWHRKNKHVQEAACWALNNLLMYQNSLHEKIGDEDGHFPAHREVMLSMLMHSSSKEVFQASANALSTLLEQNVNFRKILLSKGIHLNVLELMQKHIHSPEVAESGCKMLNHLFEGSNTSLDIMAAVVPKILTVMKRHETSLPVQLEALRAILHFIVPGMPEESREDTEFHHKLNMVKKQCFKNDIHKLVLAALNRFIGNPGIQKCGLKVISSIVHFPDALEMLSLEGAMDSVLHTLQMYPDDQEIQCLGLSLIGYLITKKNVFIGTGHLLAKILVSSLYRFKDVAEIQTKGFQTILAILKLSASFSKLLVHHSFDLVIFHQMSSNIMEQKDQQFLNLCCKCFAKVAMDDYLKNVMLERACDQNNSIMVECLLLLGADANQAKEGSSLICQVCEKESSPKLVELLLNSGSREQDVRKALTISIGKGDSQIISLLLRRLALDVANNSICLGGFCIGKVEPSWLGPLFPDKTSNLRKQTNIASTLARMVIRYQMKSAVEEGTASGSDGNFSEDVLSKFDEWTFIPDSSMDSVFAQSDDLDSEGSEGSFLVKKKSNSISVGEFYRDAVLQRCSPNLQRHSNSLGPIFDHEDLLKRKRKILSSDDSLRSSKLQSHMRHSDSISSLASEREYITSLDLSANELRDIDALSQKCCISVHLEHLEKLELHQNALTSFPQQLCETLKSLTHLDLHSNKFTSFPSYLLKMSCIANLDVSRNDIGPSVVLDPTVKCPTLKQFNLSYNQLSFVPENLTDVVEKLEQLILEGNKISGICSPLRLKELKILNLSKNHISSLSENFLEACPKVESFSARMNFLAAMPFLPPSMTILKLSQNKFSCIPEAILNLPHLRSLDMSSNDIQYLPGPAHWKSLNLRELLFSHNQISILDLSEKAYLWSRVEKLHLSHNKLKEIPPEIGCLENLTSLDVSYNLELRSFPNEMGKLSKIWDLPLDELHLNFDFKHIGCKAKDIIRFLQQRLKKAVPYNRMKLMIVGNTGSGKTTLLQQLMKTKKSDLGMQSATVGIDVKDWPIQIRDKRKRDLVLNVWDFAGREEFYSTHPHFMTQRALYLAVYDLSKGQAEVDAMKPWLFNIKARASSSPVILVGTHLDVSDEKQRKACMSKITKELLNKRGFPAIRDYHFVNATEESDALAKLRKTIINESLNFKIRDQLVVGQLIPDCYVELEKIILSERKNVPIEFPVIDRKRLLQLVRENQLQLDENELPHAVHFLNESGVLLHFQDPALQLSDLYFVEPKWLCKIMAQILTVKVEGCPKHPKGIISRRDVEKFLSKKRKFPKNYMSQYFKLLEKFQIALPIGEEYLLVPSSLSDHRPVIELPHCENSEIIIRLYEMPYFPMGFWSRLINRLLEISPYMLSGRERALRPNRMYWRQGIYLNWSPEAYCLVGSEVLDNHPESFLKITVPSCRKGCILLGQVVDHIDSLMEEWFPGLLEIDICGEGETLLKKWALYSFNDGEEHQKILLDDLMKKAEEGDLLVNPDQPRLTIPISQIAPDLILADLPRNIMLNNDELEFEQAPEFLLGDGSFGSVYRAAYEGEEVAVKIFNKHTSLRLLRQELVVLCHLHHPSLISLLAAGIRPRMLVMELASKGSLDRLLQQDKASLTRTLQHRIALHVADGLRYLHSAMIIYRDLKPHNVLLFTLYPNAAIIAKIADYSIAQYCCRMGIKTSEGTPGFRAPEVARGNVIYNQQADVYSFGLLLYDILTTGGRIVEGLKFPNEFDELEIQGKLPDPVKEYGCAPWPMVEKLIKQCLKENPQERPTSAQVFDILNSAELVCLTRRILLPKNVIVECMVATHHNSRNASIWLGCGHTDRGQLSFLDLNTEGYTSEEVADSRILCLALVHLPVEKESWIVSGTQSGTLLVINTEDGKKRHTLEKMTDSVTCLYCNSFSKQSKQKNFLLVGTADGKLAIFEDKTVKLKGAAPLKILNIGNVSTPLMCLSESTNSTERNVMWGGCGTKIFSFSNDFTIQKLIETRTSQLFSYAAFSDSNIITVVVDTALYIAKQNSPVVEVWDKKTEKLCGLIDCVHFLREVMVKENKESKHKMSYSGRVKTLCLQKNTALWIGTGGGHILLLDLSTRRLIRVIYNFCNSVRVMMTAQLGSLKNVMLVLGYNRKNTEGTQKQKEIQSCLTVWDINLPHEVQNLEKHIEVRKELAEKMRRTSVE
T1 sequence (Q5S007 whole entry): as the sequence (Q5S007 whole entry G2019S) above, with S2019G counted along it

IC50 (LRRK2 WT) [nM]	IC50 (LRRK2 G2019S) [nM]	Compound
< 100	< 100	Cc1cncc(-c2n[nH]c3ccc(N[C@H]4CCCc5cc(C#N)ccc54)cc23)c1 (single isomer, unassigned) [Example 100, 5-((3-(5-Methylpyridin-3-yl)-1H-indazol-5-yl)amino)-5,6,7,8-tetrahydronaphthalene-2-carbonitrile]
< 100	< 100	COc1c(C#N)ccc2c1CCC[C@@H]2Nc1ccc2[nH]nc(-c3cnco3)c2c1 (single isomer, unassigned) [Example 101, enantiomer 1, 1-Methoxy-5-{[3-(1,3-oxazol-5-yl)-1H-indazol-5-yl]amino}-5,6,7,8-tetrahydronaphthalene-2-carbonitrile]
< 100	< 100	COc1nc2c(cc1C#N)CCC[C@@H]2Nc1ccc2[nH]nc(-c3cnco3)c2c1 (single isomer, unassigned) [Example 102, enantiomer 1, 2-Methoxy-8-((3-(oxazol-5-yl)-1H-indazol-5-yl)amino)-5,6,7,8-tetrahydroquinoline-3-carbonitrile]
1000 to 10000	100 to 1000	COc1nc2c(cc1C#N)CCC[C@@H]2Nc1ccc2[nH]nc(-c3cnco3)c2c1 (single isomer, unassigned) [Example 102, enantiomer 2, 2-Methoxy-8-((3-(oxazol-5-yl)-1H-indazol-5-yl)amino)-5,6,7,8-tetrahydroquinoline-3-carbonitrile]
< 100	< 100	N#Cc1cnc2c(c1)CC[C@@H]2Oc1ccc2[nH]nc(-c3cnco3)c2c1 (single isomer, unassigned) [Example 103, enantiomer 1, 7-((3-(Oxazol-5-yl)-1H-indazol-5-yl)oxy)-6,7-dihydro-5H-cyclopenta[b]pyridine-3-carbonitrile]
< 100	< 100	N#Cc1ccc2c(c1)CCCC[C@@H]2Nc1ccc2[nH]nc(-c3cnco3)c2c1 (single isomer, unassigned) [Example 104, enantiomer 1, 5-((3-(Oxazol-5-yl)-1H-indazol-5-yl)amino)-6,7,8,9-tetrahydro-5H-benzo[7]annulene-2-carbonitrile]
100 to 1000	100 to 1000	N#Cc1ccc2c(c1)CCCC[C@@H]2Nc1ccc2[nH]nc(-c3cnco3)c2c1 (single isomer, unassigned) [Example 104, enantiomer 2, 5-((3-(Oxazol-5-yl)-1H-indazol-5-yl)amino)-6,7,8,9-tetrahydro-5H-benzo[7]annulene-2-carbonitrile]
100 to 1000	< 100	CC1(C)C[C@H](Nc2ccc3[nH]nc(-c4cnco4)c3c2)c2ccc(C#N)cc21 (single isomer, unassigned) [Example 105, enantiomer 1, 3,3-Dimethyl-1-((3-(oxazol-5-yl)-1H-indazol-5-yl)amino)-2,3-dihydro-1H-indene-5-carbonitrile]
100 to 1000	< 100	CC1(C)C[C@H](Nc2ccc3[nH]nc(-c4cnco4)c3c2)c2ccc(C#N)cc21 (single isomer, unassigned) [Example 105, enantiomer 2, 3,3-Dimethyl-1-((3-(oxazol-5-yl)-1H-indazol-5-yl)amino)-2,3-dihydro-1H-indene-5-carbonitrile]
100 to 1000	< 100	Cc1nc2c(cc1C#N)CCC[C@@H]2Nc1ccc2[nH]nc(-c3cnco3)c2c1 (single isomer, unassigned) [Example 106, enantiomer 1, 2-Methyl-8-((3-(oxazol-5-yl)-1H-indazol-5-yl)amino)-5,6,7,8-tetrahydroquinoline-3-carbonitrile]
< 100	< 100	Cc1c(C#N)cnc2c1CC[C@@H]2Oc1ccc2[nH]nc(-c3cnco3)c2c1 (single isomer, unassigned) [Example 107, enantiomer 1, 4-Methyl-7-((3-(oxazol-5-yl)-1H-indazol-5-yl)oxy)-6,7-dihydro-5H-cyclopenta[b]pyridine-3-carbonitrile]
100 to 1000	< 100	Cc1c(C#N)cnc2c1CC[C@@H]2Oc1ccc2[nH]nc(-c3cnco3)c2c1 (single isomer, unassigned) [Example 107, enantiomer 2, 4-Methyl-7-((3-(oxazol-5-yl)-1H-indazol-5-yl)oxy)-6,7-dihydro-5H-cyclopenta[b]pyridine-3-carbonitrile]
100 to 1000	< 100	Cc1c(C#N)cnc2c1CC[C@@H]2Nc1ccc2[nH]nc(-c3cnco3)c2c1 (single isomer, unassigned) [Example 108, enantiomer 1, 4-Methyl-7-((3-(oxazol-5-yl)-1H-indazol-5-yl)amino)-6,7-dihydro-5H-cyclopenta[b]pyridine-3-carbonitrile]
< 100	< 100	N#Cc1cnc2c(c1)CC[C@@H]2Nc1ccc2[nH]nc(-c3cnco3)c2c1 (single isomer, unassigned) [Example 109, enantiomer 1, 7-((3-(Oxazol-5-yl)-1H-indazol-5-yl)amino)-6,7-dihydro-5H-cyclopenta[b]pyridine-3-carbonitrile]
100 to 1000	< 100	N#Cc1cnc2c(c1)CC[C@@H]2Nc1ccc2[nH]nc(-c3cnco3)c2c1 (single isomer, unassigned) [Example 109, enantiomer 2, 7-((3-(Oxazol-5-yl)-1H-indazol-5-yl)amino)-6,7-dihydro-5H-cyclopenta[b]pyridine-3-carbonitrile]
< 100	< 100	Cc1cc2c(cc1C#N)CCC[C@@H]2Nc1ccc2[nH]nc(-c3cnco3)c2c1 (single isomer, unassigned) [Example 110, enantiomer 1, 3-Methyl-5-((3-(oxazol-5-yl)-1H-indazol-5-yl)amino)-5,6,7,8-tetrahydronaphthalene-2-carbonitrile]
100 to 1000	< 100	Cc1cc2c(cc1C#N)CCC[C@@H]2Nc1ccc2[nH]nc(-c3cnco3)c2c1 (single isomer, unassigned) [Example 110, enantiomer 2, 3-Methyl-5-((3-(oxazol-5-yl)-1H-indazol-5-yl)amino)-5,6,7,8-tetrahydronaphthalene-2-carbonitrile]
< 100	< 100	CN(c1ccc2[nH]nc(-c3cnco3)c2c1)[C@H]1CCc2cc(C#N)ccc21 (single isomer, unassigned) [Example 111, enantiomer 1, 1-(Methyl(3-(oxazol-5-yl)-1H-indazol-5-yl)amino)-2,3-dihydro-1H-indene-5-carbonitrile]
100 to 1000	< 100	CN(c1ccc2[nH]nc(-c3cnco3)c2c1)[C@H]1CCc2cc(C#N)ccc21 (single isomer, unassigned) [Example 111, enantiomer 2, 1-(Methyl(3-(oxazol-5-yl)-1H-indazol-5-yl)amino)-2,3-dihydro-1H-indene-5-carbonitrile]
100 to 1000	< 100	N#Cc1cc2c(nc1Cl)[C@@H](Nc1ccc3[nH]nc(-c4cnco4)c3c1)CCC2 (single isomer, unassigned) [Example 112, enantiomer 1, 2-Chloro-8-((3-(oxazol-5-yl)-1H-indazol-5-yl)amino)-5,6,7,8-tetrahydroquinoline-3-carbonitrile]
< 100	< 100	COc1c(C#N)ccc2c1CC[C@@H]2Nc1ccc2[nH]nc(-c3cnco3)c2c1 (single isomer, unassigned) [Example 113, enantiomer 1, 4-Methoxy-1-((3-(oxazol-5-yl)-1H-indazol-5-yl)amino)-2,3-dihydro-1H-indene-5-carbonitrile]
100 to 1000	100 to 1000	COc1cc2c(cc1C#N)CCC[C@@H]2Nc1ccc2[nH]nc(-c3cnoc3)c2c1 (single isomer, unassigned) [Example 114, enantiomer 1, 5-((3-(Isoxazol-4-yl)-1H-indazol-5-yl)amino)-3-methoxy-5,6,7,8-tetrahydronaphthalene-2-carbonitrile]
< 100	< 100	COc1cc2c(cc1C#N)CCC[C@@H]2Nc1ccc2[nH]nc(-c3cnoc3)c2c1 (single isomer, unassigned) [Example 114, enantiomer 2, 5-((3-(Isoxazol-4-yl)-1H-indazol-5-yl)amino)-3-methoxy-5,6,7,8-tetrahydronaphthalene-2-carbonitrile]
100 to 1000	< 100	CC1(C)CC[C@H](Nc2ccc3[nH]nc(-c4cnco4)c3c2)c2ccc(C#N)cc21 (single isomer, unassigned) [Example 115, enantiomer 1, 8,8-Dimethyl-5-((3-(oxazol-5-yl)-1H-indazol-5-yl)amino)-5,6,7,8-tetrahydronaphthalene-2-carbonitrile]
100 to 1000	< 100	CC1(C)CC[C@H](Nc2ccc3[nH]nc(-c4cnco4)c3c2)c2ccc(C#N)cc21 (single isomer, unassigned) [Example 115, enantiomer 2, 8,8-Dimethyl-5-((3-(oxazol-5-yl)-1H-indazol-5-yl)amino)-5,6,7,8-tetrahydronaphthalene-2-carbonitrile]
< 100	< 100	CCc1cc(-c2n[nH]c3ccc(N[C@H]4CCCc5cc(C#N)ccc54)cc23)ccn1 (single isomer, unassigned) [Example 116, enantiomer 1, 5-((3-(2-Ethylpyridin-4-yl)-1H-indazol-5-yl)amino)-5,6,7,8-tetrahydronaphthalene-2-carbonitrile]
< 100	< 100	Cc1c(C#N)ccc2c1CC[C@H]2Nc1ccc2[nH]nc(-c3cnoc3)c2c1 (single isomer, unassigned) [Example 118, enantiomer 1, 1-((3-(Isoxazol-4-yl)-1H-indazol-5-yl)amino)-4-methyl-2,3-dihydro-1H-indene-5-carbonitrile]
